Entries after “also recorded” stand apart in the source; their conditions may differ.
Columns and labels:
[1] = system: ICR mice; test: Oral glucose tolerance (OGTT) pharmacodynamic experiment in ICR mice; format: in vivo; conditions: for hypoglycemic effect: OGTT; for hypoglycemic activity: oral glucose tolerance, glucose 5 g/kg, compound given 0.5 h before sugar
Protocol: 1. Pharmacodynamic Experiment of Compound on Oral Glucose Tolerance in ICR Mice
After the animals arrived at WuXi AppTec facilities, they were kept in the animal feeding room with strictly controlled environmental conditions. The temperature was kept at 20-24° C. and the humidity was kept at 30-70% in the feeding room. The temperature and humidity of the feeding room were monitored in real time through the temperature and humidity meter, and the temperature and humidity were recorded twice a day (once in the morning and once in the afternoon). The lighting in the animal feeding room was controlled by an electronic timing lighting system, which was turned on for 12 hours every day and turned off for 12 hours (on at 7:00 a.m. and off at 19:00 p.m.). During the experiment, the animals were raised in a single cage and toys were provided for mice in each cage. During the experiment, the animals freely took food (growth/reproduction feed for rats and mice) and water.
After the animals arrived, they can adapt to the environment for 1-2 weeks before conducting the experiment.
1) Preparation of liquid medicine: each compound was prepared on the first day of the experiment, and then stored in a 4° C. refrigerator for use on the next day.
2) Administration: After grouping, animals in each group were administered 0.5 hours before sugar administration.
3) Oral glucose tolerance experiment: sugar was administrated to the animals by gavage 0.5 hour after the end of the animal administration, and the time of sugar administration was recorded as 0 min. The oral dose of glucose was 5 g/kg, 10 ml/kg. The blood glucose of animals was detected before administration, before sugar administration, and 15, 30, 60, 90, and 120 minutes after sugar administration. The blood glucose was detected with a blood glucose meter and the corresponding blood glucose test paper.

[2] = system: intestinal endocrine cell line STC-1 cell; test: In vitro GLP-1 secretion in STC-1 cells (HTRF kit); format: cell-based; conditions: for EC50: 1 h treatment, read-out: EC50 of promoting GLP-1 secretion in vitro
Protocol: Cell line: intestinal endocrine cell line STC-1 cell
Positive control: INT777 (TGR5 receptor agonist)
Others: KRBH buffer, BSA, DPP4 inhibitor
STC-1 cells were seeded with a certain density. After the cells adhered to the wall overnight, they were starved with KRBH buffer, while BSA was used to maintain nutrition, and degradation of GLP-1 was reduced with DPP4 inhibitors. After 1 h, they were replaced with glucose free or glucose containing KRBH buffer to stimulate GLP-1 secretion. At the same time, compounds of certain concentrations were added. After 1 h of treatment, supernatant was collected and tested for GLP-1 concentration with HTRF kit. The secretion of LDH was also detected to indicate the toxicity of the compounds.

[3] = system: SARS Cov-2 virus; test: SARS Cov-2 virus replication inhibition in Vero E6 cells (viral copy number by qPCR); format: cell-based; conditions: Severe acute respiratory syndrome coronavirus 2, Vero C1008, MOI 0.05, 24 hours
[4] = system: influenza virus; format: cell-based; conditions: MDCK cells, screening concentration 50 μM, 36 h
[5] = system: MDCK cell; test: Cytotoxicity in the anti influenza virus assay (MDCK cells); format: cell-based; conditions: screening concentration 50 μM
Protocol: CellTiter-Glo® Luminescent Cell Viability Assay
Screening concentration: 50 μM
MDCK cells were laid with 96 well plates (1×10^4/well) and incubated in 37° C. and 5% CO2 incubators for 24 h, then the medicine was added.
After dosing, the 96 well plate was put in the 37° C., 5% CO2 incubator for 36 h, and detected with the microplate reader.

[6] = PK property in mice; format: in vivo, ICR (CD-1) mice; conditions: PO 25 mg/kg, IV 3 mg/kg
Protocol: Species/strain: ICR (CD-1) mice
Gender/number of rats: male (n=6)
Weight (g): male (20-24 g)
Type of diet: standard rodent diet • freely drink • Fasted for 12 hours before administration and keeping fasting for 2 hours.
Feeding: animal room environment control (target conditions: temperature 18 to 29° C., relative humidity 30 to 70%. Temperature and relative humidity were monitored every day. The electronic time control lighting system was used to provide 12 hours of light/12 hours of dark cycle.

## CC1(C)CC[C@]2(C(=O)O)CC[C@]3(C)C(=CCC4[C@@]5(C)CC[C@H]([C@@H](O)[C@@H]6OC(C(=O)O)[C@@H](O)C(O)C6O)C(C)(C)C5CC[C@]43C)C2C1 (stereo partly drawn) [Example A25, (3S,5S,8R,9R,10S,14R,17R,18S)-Oleanolic acid-3-(1′R)-(hydroxy)methyl-β-D-glucurouopyranoside]
[1]; 25 mg/kg
  hypoglycemic effect: obvious hypoglycemic effect
[1]; 50 mg/kg
  hypoglycemic effect: further enhanced hypoglycemic effect
[1]
  hypoglycemic activity: good in vivo hypoglycemic effect; also recorded: best hypoglycemic activity

## CC[C@H]1[C@@H](O)[C@@H]2[C@H](C[C@H](O)[C@]3(C)[C@@H]([C@H](C)C[C@H](C)C(=O)O)CC[C@@H]23)[C@@]2(C)CC[C@@H](O)C[C@@H]12 [INT777, reference compound]
[2]
  EC50: 22.8 µM

## CC1O[C@@H]([C@H](O)[C@H]2CC[C@@]3(C)C(CC[C@]4(C)C3CC=C3C5CC(C)(C)CC[C@]5(C(=O)O)CC[C@]34C)C2(C)C)C(O)C(O)[C@H]1O (stereo partly drawn) [Example A43, (3S,5S,8R,9R,10S,14R,17R,18S)-Oleanolic acid-3-(1'S)-(hydroxy)methyl-α-L-rhamnopyranoside]
[1]; 25 mg/kg
  hypoglycemic effect: obvious hypoglycemic effect
[1]; 50 mg/kg
  hypoglycemic effect: further enhanced hypoglycemic effect
[1]
  hypoglycemic activity: good in vivo hypoglycemic effect; also recorded: best hypoglycemic activity

## CNC(=O)C1O[C@@H]([C@H](O)[C@H]2CC[C@@]3(C)C(CC[C@]4(C)C3CC=C3C5CC(C)(C)CC[C@]5(C(=O)O)CC[C@]34C)C2(C)C)C(O)C(O)[C@@H]1O (stereo partly drawn) [Example A114, (3S,5S,8R,9R,10S,14R,17R,18S)-Oleanolic acid-3-(1′R)-(hydroxy)methyl-6″-methylamino-β-D-glucurouopyranoside]
[3]
  EC50: 4.6 µM

## CC1(C)CC[C@]2(C(=O)O)CC[C@]3(C)C(=CCC4[C@@]5(C)CC[C@H]([C@@H](O)[C@@H]6OC(CO)[C@@H](O)C(O)C6O)C(C)(C)C5CC[C@]43C)C2C1 (stereo partly drawn) [Example A2, (3S,5S,8R,9R,10S,14R,17R,18S)-Oleanolicacid-3-(1′R)-(hydroxyl)methyl-β-D-glucopyranoside]
[4]
  virus inhibition rate: same virus inhibition rate
[5]
  cytotoxicity: low cytotoxicity; also recorded: lower cytotoxicity than that of ribavirin

## CC1(C)CC[C@]2(C(=O)O)CC[C@]3(C)C(=CCC4[C@@]5(C)CC[C@@H](C[C@@H]6OC(C(=O)O)[C@@H](O)C(O[C@@H]7OC[C@@H](O)C(O)C7O)C6O)C(C)(C)C5CC[C@]43C)C2C1 (stereo partly drawn) [Example A64, (3R,5S,8R,9R,10S,14R,17R,18S)-Oleanolic acid-3-methyl-β-D-xylopyranosyl(1→3)-β-D-glucurouopyranoside]
[2]
  in vitro effect of promoting GLP-1 secretion: good in vitro effect of promoting GLP-1 secretion
  EC50: 7.23 µM

## CC1(C)CC[C@]2(C(=O)OCn3cccn3)CC[C@]3(C)C(=CCC4[C@@]5(C)CC[C@H]([C@@H](O)[C@@H]6OC(C(=O)O)[C@@H](O)C(O)C6O)C(C)(C)C5CC[C@]43C)C2C1 (stereo partly drawn) [Example A104, (3S,5S,8R,9R,10S,14R,17R,18S)-28-O-(Pyrazol-1″′-yl)methyl oleanolic acid-3-(1′R)-(hydroxy)methyl-β-D-glucurouopyranoside]
[3]
  EC50: 3.6 µM
[6]
  PK properties: good PK properties

— patent US20240262860A1, “PENTACYCLIC TRITERPENOID GLYCOSIDE COMPOUND, AND PREPARATION METHOD THEREFOR AND USE THEREOF” (SHANGHAI INSTITUTE OF MATERIA MEDICA, CHINESE ACADEMY OF …, priority 2020, published 2024)
